ChEMBL document CHEMBL1909046, “DrugMatrix in vitro pharmacology data”
Where a SMILES comes first, the peptide text is derived from it. Bridges are numbered along the chain shown (N, C = ends). [ ]: non-standard residue; d: D form. The star is where a group is joined. Threoninol(2S,3R) = C[C@@H](O)[C@H](CO)N*

Tests used:
[1] = target: 5-hydroxytryptamine receptor 6 (Homo sapiens, UniProt P50406); assay type: cell membranes, HeLa, Membrane; details: hela; note: in other assays of this panel Not Active means under 50% inhibition at 10 µM
[2] = target: T1, Polyunsaturated fatty acid lipoxygenase ALOX15 (Oryctolagus cuniculus, UniProt P12530); assay: biochemical; assay type: tissue-based, Reticulocytes; details: reticulocytes;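 note: inhibition of 15-lipoxygenase enzyme activity measured with linoleic acid as the substrate; in other assays of this panel Not Active means under 50% inhibition at 10 µM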
T1 sequence (P12530 whole entry): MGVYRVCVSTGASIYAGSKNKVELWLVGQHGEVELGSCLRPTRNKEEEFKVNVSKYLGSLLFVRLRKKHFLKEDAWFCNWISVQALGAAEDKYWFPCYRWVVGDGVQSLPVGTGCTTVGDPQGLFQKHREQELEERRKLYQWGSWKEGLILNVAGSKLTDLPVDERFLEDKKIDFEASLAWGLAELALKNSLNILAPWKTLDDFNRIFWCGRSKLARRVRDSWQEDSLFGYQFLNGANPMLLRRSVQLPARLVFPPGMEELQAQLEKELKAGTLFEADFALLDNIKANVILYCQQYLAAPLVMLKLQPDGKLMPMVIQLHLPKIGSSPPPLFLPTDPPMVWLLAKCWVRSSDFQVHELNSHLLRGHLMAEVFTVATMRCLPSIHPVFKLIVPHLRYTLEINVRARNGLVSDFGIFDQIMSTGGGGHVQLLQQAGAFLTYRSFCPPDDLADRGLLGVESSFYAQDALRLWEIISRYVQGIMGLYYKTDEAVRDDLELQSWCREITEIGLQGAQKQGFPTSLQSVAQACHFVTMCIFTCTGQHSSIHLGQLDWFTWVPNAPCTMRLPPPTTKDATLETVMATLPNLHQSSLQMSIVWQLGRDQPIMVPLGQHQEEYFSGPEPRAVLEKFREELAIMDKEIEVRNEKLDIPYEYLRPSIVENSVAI

[3] = target: Platelet-activating factor receptor (Homo sapiens, UniProt P25105); assay type: tissue-based; note: in other assays of this panel Not Active means under 50% inhibition at 10 µM
[4] = target: T2, 5-hydroxytryptamine receptor 2C (Homo sapiens, UniProt P28335); assay: DRUGMATRIX: Serotonin (5-Hydroxytryptamine) 5-HT2C radioligand binding (ligand: [3H] Mesulergine); assay type: cell membranes, CHO-K1, Membrane; details: cho-k1; Not Active = under 50% inhibition at 10 µM
T2 sequence (P28335 whole entry): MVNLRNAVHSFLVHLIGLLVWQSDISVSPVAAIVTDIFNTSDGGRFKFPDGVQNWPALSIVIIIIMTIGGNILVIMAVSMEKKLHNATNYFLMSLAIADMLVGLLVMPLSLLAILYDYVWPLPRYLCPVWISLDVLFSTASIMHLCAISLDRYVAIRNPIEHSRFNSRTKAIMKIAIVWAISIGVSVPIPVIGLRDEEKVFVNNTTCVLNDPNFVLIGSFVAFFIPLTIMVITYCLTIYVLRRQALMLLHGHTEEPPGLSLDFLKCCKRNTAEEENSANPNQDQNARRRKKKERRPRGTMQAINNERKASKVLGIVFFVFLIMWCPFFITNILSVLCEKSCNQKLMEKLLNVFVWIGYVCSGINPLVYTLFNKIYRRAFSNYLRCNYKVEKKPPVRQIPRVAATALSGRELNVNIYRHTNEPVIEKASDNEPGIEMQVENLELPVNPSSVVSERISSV

[5] = target: T3, Vasoactive intestinal polypeptide receptor 1 (Homo sapiens, UniProt P32241); assay type: cell membranes, Membrane; details: ht-29; note: in other assays of this panel Not Active means under 50% inhibition at 10 µM
T3 sequence (P32241 whole entry): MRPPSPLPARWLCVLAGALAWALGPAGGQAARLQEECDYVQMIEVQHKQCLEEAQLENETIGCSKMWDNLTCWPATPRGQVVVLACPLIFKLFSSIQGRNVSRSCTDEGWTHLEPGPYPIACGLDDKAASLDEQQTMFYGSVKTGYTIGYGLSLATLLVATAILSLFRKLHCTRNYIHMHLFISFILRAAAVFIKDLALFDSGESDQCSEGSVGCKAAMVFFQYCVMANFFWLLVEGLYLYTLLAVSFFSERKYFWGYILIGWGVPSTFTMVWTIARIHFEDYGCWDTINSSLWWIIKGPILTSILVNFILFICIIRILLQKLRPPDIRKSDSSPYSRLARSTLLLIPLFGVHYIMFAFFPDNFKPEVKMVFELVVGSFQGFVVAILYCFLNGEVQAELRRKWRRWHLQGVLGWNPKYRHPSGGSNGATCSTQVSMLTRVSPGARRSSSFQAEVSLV

[6] = target: T4, Estrogen receptor (Homo sapiens, UniProt P03372); details: sf9; note: in other assays of this panel Not Active means under 50% inhibition at 10 µM
T4 sequence (P03372 whole entry): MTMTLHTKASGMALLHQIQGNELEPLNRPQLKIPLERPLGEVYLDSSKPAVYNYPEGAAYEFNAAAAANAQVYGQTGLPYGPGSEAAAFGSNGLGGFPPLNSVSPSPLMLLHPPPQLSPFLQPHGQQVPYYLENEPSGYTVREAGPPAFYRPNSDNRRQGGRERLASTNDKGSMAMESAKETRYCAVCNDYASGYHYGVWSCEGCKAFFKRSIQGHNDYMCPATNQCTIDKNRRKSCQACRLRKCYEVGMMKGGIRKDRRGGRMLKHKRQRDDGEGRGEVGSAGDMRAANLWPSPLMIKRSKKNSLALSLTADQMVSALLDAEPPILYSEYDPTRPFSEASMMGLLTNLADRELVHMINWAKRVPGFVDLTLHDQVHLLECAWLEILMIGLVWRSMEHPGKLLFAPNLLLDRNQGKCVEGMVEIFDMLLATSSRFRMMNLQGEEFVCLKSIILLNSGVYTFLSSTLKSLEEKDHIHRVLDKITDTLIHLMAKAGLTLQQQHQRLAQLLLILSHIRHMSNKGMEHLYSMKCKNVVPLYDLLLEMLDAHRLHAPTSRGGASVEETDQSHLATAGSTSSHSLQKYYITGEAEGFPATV

[7] = DRUGMATRIX: beta-Lactamase enzyme inhibition (substrate: Nitrocefin); parameters: species or system Bacillus cereus; details: Not Active = under 50% inhibition at 10 µM

5-hydroxytryptamine receptor 6, sequence (P50406 whole entry): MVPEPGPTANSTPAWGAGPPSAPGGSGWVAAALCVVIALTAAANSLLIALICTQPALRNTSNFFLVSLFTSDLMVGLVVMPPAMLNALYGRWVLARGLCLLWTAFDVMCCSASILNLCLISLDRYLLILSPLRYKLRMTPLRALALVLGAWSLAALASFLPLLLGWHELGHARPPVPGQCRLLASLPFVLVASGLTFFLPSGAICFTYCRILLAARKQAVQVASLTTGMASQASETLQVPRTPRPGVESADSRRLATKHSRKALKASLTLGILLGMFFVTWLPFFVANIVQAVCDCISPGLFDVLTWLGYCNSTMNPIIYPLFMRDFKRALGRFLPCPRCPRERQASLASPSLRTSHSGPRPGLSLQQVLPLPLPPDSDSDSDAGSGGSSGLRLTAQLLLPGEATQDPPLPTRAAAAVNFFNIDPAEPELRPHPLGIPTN
Platelet-activating factor receptor, sequence (P25105 whole entry): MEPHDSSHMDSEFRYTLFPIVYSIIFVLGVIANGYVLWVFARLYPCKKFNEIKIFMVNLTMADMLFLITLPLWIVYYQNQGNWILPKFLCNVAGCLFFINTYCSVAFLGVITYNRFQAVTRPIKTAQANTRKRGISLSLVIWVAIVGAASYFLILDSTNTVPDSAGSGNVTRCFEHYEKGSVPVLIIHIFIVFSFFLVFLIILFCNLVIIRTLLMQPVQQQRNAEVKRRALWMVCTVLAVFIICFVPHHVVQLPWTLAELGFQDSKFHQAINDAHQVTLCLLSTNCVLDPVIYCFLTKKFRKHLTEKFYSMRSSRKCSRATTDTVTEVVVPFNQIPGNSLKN

COc1ccccc1C(=O)N1CCC(Cc2ccccc2)CC1
Not Active: IC50 [1] | IC50 [2] | IC50 [3] | IC50 [4] | IC50 [5] | IC50 [6] | IC50 [7] | Ki [7]

Cc1ccccc1C(=O)N1CCC(Cc2ccccc2)CC1
Not Active: IC50 [1] | IC50 [2] | IC50 [3] | IC50 [4] | IC50 [5] | IC50 [6] | IC50 [7] | Ki [7]

N=C(Nc1ccccc1)Nc1ccccc1
Not Active: IC50 [1] | IC50 [2] | IC50 [3] | IC50 [4] | IC50 [5] | IC50 [6] | IC50 [7] | Ki [7]

C[C@@H](O)[C@H](CO)NC(=O)[C@@H]1CSSC[C@H](NC(=O)[C@H](N)Cc2ccccc2)C(=O)N[C@@H](Cc2ccccc2)C(=O)N[C@H](Cc2c[nH]c3ccccc23)C(=O)N[C@@H](CCCCN)C(=O)N[C@@H]([C@@H](C)O)C(=O)N1 (H-[dF]CF[dW]KTC-{Threoninol(2S,3R)}; disulfide 2-7)
Not Active: IC50 [1] | IC50 [2] | IC50 [3] | IC50 [4] | IC50 [5] | IC50 [6] | IC50 [7] | Ki [7]

S=C=Nc1cccc2ccccc12 [1-NAPHTHYLISOTHIOCYANATE]
Not Active: IC50 [1] | IC50 [2] | IC50 [3] | IC50 [4] | IC50 [5] | IC50 [6] | IC50 [7] | Ki [7]

C[C@](O)(CS(=O)(=O)c1ccc(F)cc1)C(=O)Nc1ccc(C#N)c(C(F)(F)F)c1 [(R)-BICALUTAMIDE]
Not Active: IC50 [1] | IC50 [2] | IC50 [3] | IC50 [4] | IC50 [5] | IC50 [6] | IC50 [7] | Ki [7]

CCCC(=O)Nc1ccc(OCC(O)CNC(C)C)c(C(C)=O)c1 (stereo unspecified) [ACEBUTOLOL]
Not Active: IC50 [1] | IC50 [2] | IC50 [3] | IC50 [4] | IC50 [5] | IC50 [6] | IC50 [7] | Ki [7]

COc1cc2c(c3oc(=O)c4c(c13)CCC4=O)[C@@H]1C=CO[C@@H]1O2 [AFLATOXIN]
Not Active: IC50 [1] | Ki [1] | IC50 [2] | Ki [2] | IC50 [3] | Ki [3] | IC50 [4] | Ki [4] | IC50 [5] | Ki [5] | IC50 [6] | Ki [6] | IC50 [7] | Ki [7]

N=C(N)NC(=O)c1nc(Cl)c(N)nc1N [AMILORIDE]
Not Active: IC50 [1] | IC50 [2] | IC50 [3] | IC50 [4] | IC50 [5] | IC50 [6] | IC50 [7] | Ki [7]

Cc1cc(=O)n(-c2ccccc2)n1C [ANTIPYRINE]
Not Active: IC50 [1] | IC50 [2] | IC50 [3] | IC50 [4] | IC50 [5] | IC50 [6] | IC50 [7] | Ki [7]

CN1C(=O)COc2c(C(=O)NC3CN4CCC3CC4)cc(Cl)cc21 (stereo unspecified) [AZASETRON]
Not Active: IC50 [1] | IC50 [2] | IC50 [3] | IC50 [4] | IC50 [5] | IC50 [6] | IC50 [7] | Ki [7]

C[C@H]1C[C@H]2[C@@H]3CCC4=CC(=O)C=C[C@]4(C)[C@@]3(Cl)[C@@H](O)C[C@]2(C)[C@@]1(O)C(=O)CO [BECLOMETHASONE]
Not Active: IC50 [1] | IC50 [2] | IC50 [3] | IC50 [4] | IC50 [5] | IC50 [6] | IC50 [7] | Ki [7]

Nc1c(CC(=O)O)cccc1C(=O)c1ccc(Br)cc1 [BROMFENAC]
Not Active: IC50 [1] | IC50 [2] | IC50 [3] | IC50 [4] | IC50 [5] | IC50 [6] | IC50 [7] | Ki [7]

CCCCN1CCCCC1C(=O)Nc1c(C)cccc1C.Cl (stereo unspecified) [BUPIVACAINE HYDROCHLORIDE]
Not Active: IC50 [1] | IC50 [2] | IC50 [3] | IC50 [4] | IC50 [5] | IC50 [6] | IC50 [7] | Ki [7]

C[C@@]12C(=O)OC(=O)[C@]1(C)[C@H]1CC[C@@H]2O1 [CANTHARIDIN]
Not Active: IC50 [1] | IC50 [2] | IC50 [3] | IC50 [4] | IC50 [5] | IC50 [6] | IC50 [7] | Ki [7]
